The record followed here is US7183061B2, “Method of expressing Heliothis ecdysone receptor fusion protein” (Syngenta Limited, priority 1996, dated 2007).

In this test the target is chimeric glucocorticoid VP16/Heliothis ecdysone receptor (UniProt O18473+P04150, DEL153-392/E478D/INS403[…]/INS405[…]/M398P/P396A/P400T/P406S/R399P/S397A/Y393A). Briefly: Maize protoplast GUS reporter assay with pMF6GRVP16HEcR and p221.9GRE6. It counts as cell-based, Heliothis virescens. Set-up: expressed in transfected cells; host or cells: maize protoplasts (A10); stably transformed tobacco plants, pES3/pES4 (A11). On the procedure: Protoplasts were isolated from a maize suspension culture derived from BE70×A188 embryogenic callus material, which was maintained by subculturing twice weekly in MS0.5mod. (MS medium supplemented with 3% sucrose, 690 mg/l proline, 1 g/l myo-inositol, 0.2 g/l casein acid hydrolysate, 0.5 mg/l 2,4-D, pH 5.6). Cells from suspensions two days post subculture were digested in enzyme mixture (2.0% Cellulase RS, 0.2% Pectolyase Y23, 0.5 M Mannitol, 5 mM CaCl2.2H2O, 0.5% MES, pH 5.6, ˜660 mmol/kg) using ˜10 ml/g cells, incubating at 25° C., dim light, rotating gently for ˜2 hours. The digestion mixture was sieved sequentially through 250 μm and 38 μm sieves, and the filtrate centrifuged at 700 rpm for 3.5 minutes, discarding the supernatant. The protoplasts were resuspended in wash buffer (0.358 M KCl, 1.0 mM NH4NO3, 5.0 mM CaCl2.2H2O, 0.5 mM KH2PO4, pH 4.8, ˜670 mmol/kg) and pelleted as before. This washing step was repeated. The pellet was resuspended in wash buffer and the protoplasts were counted. Transformation was achieved using a Polyethylene glycol method based on Negrutiu et al. Protoplasts were resuspended at 2×10^6/ml in MaMg medium (0.4 M Mannitol, 15 mM MgCl2, 0.1% MES, pH 5.6, ˜450 mmol/kg) aliquotting 0.5 ml/treatment (i.e. 1×10^6 protoplasts/treatment). […] Protein concentrations of tissue homogenates were determined by the Bio-Rad protein assay (Bradford, 1976). […]
On the technique in general: Reporter assays use an easily measured gene product as a stand-in for the process of interest.

Sequence of chimeric glucocorticoid VP16/Heliothis ecdysone receptor (P04150+O18473 fused with the stated changes): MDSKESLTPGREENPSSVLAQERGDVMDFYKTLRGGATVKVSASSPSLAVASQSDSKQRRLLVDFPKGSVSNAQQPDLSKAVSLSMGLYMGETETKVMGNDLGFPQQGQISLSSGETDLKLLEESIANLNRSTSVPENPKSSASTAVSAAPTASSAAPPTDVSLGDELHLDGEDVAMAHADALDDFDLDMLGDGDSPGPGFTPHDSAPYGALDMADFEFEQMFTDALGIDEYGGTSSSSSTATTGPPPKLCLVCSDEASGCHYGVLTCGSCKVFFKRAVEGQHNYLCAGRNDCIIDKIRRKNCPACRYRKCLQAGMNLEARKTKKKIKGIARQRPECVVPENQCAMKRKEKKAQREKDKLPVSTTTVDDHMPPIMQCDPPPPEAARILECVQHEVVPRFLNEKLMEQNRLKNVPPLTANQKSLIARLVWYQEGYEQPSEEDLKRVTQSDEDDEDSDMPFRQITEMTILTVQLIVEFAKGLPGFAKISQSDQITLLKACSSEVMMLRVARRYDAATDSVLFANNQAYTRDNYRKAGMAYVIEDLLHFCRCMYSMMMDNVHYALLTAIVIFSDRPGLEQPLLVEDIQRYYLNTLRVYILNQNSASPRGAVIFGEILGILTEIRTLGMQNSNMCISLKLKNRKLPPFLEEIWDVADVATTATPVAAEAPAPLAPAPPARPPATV

As to `CCc1ccc(C(=O)NN(C(=O)c2cc(C)cc(C)c2)C(C)(C)C)cc1` [RH5992, 3,5-dimethylbenzoic acid 1-1(1,1-dimethylethyl)-2(4-ethylbenzoyl)hydrazide], for the setting “maize protoplasts (FIG. 39)”, the “GUS levels relative to positive control (p35SCaMVGUS)” value was “comparable to those observed with the positive control”. For the same compound, for the setting “maize protoplasts, 100 μM”, the “levels of expression relative to pMF6GRHEcR” value is given as “enhanced levels of expression”.
